Patent US20050209336A1, “EP2 receptor agonists” (priority 2003, published 2005)
Like-named read-outs stand apart in the source and are kept apart here.

Tests used:
[1] = test system: IL-2 production by OKT3 activated T cells; experiment: Lymphocyte assay: IL-2 production by anti-CD3 (OKT3) stimulated T cells; type: cell-based, human; details: Homo sapiens, T-cell, 24 h, inhibition of IL-2 production
From the text: Lymphocytes are mononuclear leukocytes, which participate in specific immune responses to foreign antigens and in the manifestation of auto-immune diseases. T lymphocytes produce IL-2, a key factor for lymphocyte activation and proliferation, in response to antigen stimulation via the CD3-T cell receptor complex and the pathway involved in this response is the NF-AT. […] A lymphocyte assay was designed to model this response and to determine the effect of test compound on IL-2 production by anti-CD3-stimulated T cells isolated from peripheral blood. This assay uses a sub-optimal dose of an anti-CD3 monoclonal antibody (OKT3, 25 ng/ml) immobilised to a 96-well plate to stimulate a T cell response. The level of IL-2 released into the cell culture supernatants was quantified using a standard sandwich ELISA. Similarly, other cytokines such as TNFα and IFN-γ can also be measured in the same assay.
Human peripheral blood mononuclear cells from healthy volunteers were isolated from whole blood by Ficoll-Hypaque density centrifugation and adherence to plastic. The non-adherent lymphocyte fraction was used to set up the lymphocyte assay and the adherent monocytes were then recovered by scraping and subsequently used in the monocyte assay.
Lymphocytes were then seeded to a 96-well plate pre-coated with anti-CD3 monoclonal antibody (OKT3) at 25 ng/ml and immediately, the test compounds (Peak 1, mixture 1 acid; Peak 1, mixture 2 acid; AH-13205 racemate; PGE2) in appropriate dilutions were added to corresponding wells according to the experimental design. The plate was incubated for 24 hours at 37° C. with 5% CO2 in air and supernatants were recovered for ELISA analysis at the end of incubation period. The levels of IFN-γ was assessed by using the ProteoPlex 16 well human cytokine array assay kit according to the manufacturer's instruction.

[2] = test system: human myometrial smooth muscle; experiment: Human myometrial activity: inhibition of electrical field stimulation (EFS) induced contractions; type: cell-based; details: for maximum inhibitory effect: inhibition of EFS-induced contractions / EC50: human myometrium strips; for effect on electrically-induced (EFS-evoked) contractions: human myometrium, 10^-6 to 10^-4 M (FIG. 6), 1x10^-7 to 1x10^-4 M; for EC50: inhibition of EFS-evoked response
Method: The following describes an in vitro functional assay, using human myometrial smooth muscle, to determine the affinity of the test compounds at the EP2 receptor in human tissues.
Sections of human myometrium were prepared from samples of surgically removed uterus longitudinal myometrial muscle strips (2 mm wide by 10 mm long) were then cut and suspended between stainless steel hooks in organ chambers containing oxygenated (95% O2/5% CO2) Krebs solution at 37° C. The composition of the Krebs solution was as follows: NaCl (118.2 mM), KCl (4.69 mM), MgSO4.7H2O (1.18 mM), KH2PO4 (1.19 mM), glucose (11.1 mM), NaHCO3 (25.0 mM), CaCl2.6H2O (2.5 mM), indomethacin 3×10^−6M.
Tissues were placed under a tension equivalent to 25 mN and left overnight at room temperature. The following day the tissues were maintained at 37° C., washed and placed under a tension of 15 mN then allowed to equilibrate for a period of at least 30 minutes. Responses were recorded using isometric transducers coupled to an Apple Macintosh computer via a MacLab interface. After 60 minutes, the muscle sections of the human myometrium were stimulated electrically (15 ms pulse width, for 10 s every 100 s at 15V and 0.5-40 Hz) using parallel platinum wire electrodes and a Multistim D330 pulse stimulator. Upon electrical stimulation, the strips of human myometrial smooth muscle responded with a rapid contraction. Once the response to electrical stimulation had stabilised (stimulated responses differed by no more than 10%), the strips were exposed to increasing concentrations of test compounds (1×10^−7 to 1×10^−4M, incubated for at least 15 minutes at each concentration). At the end of the experiment, application of sodium nitroprusside (SNP, a nitric oxide donor that causes smooth muscle relaxation) (1×10^−4M) was used to produce a standard relaxatory response. To determine the affinity of the compounds, the concentration of test compound required to produce half-maximal effects (EC50) was calculated, as was the maximum response (calculated as a percentage of the standard response produced with SNP).

[3] = target: T1, human EP3 receptor (Homo sapiens, UniProt P43115); experiment: Radioligand ([3H]PGE2) competition displacement binding, human EP3 receptor membranes; details: [3H]PGE2 displacement, read-out: pKi EP3 (converted)
T1 construct: expressed in transfected cells
T1 sequence (P43115 1-390): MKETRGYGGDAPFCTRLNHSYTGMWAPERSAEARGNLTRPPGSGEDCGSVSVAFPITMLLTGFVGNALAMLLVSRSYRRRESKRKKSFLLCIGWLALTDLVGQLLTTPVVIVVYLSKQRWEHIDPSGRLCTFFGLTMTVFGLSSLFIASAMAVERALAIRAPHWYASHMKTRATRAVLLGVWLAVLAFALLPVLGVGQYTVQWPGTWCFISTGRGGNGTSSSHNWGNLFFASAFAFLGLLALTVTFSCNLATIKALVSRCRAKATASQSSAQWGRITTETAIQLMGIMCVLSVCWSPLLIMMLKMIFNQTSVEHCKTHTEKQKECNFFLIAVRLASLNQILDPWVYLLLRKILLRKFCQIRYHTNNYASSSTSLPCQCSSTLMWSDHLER
Method: Membranes were prepared from cells stably transfected with human EP receptor cDNA. In brief, cells were cultured to confluency, scraped from culture flasks, and centrifuged (800 g, 8 minutes, 4° C.). Cells were twice washed in ice cold homogenisation buffer containing 10 mMTris-HCl, 1 mM EDTA.2Na, 250 mM sucrose, 1 mM PMSF, 0.3 mM indomethacin, pH 7.4, homogenised and re-centrifuged as before. The supernatant was stored on ice and pellets re-homogenised and re-spun. Supernatants were pooled and centrifuged at 40000 g, 10 minutes, 4° C. Resultant membrane pellets were stored at −80° C. until use.
For assay, membranes expressing human EP4, EP3, EP2 or EP1 receptors were incubated in Millipore (MHVBN45) plates containing assay buffer, radiolabelled [^3H]PGE2 and 0.1 to 10 000 nM concentrations of compounds. Incubations were performed at suitable temperatures and for suitable times to allow equilibrium to be reached. Non-specific binding was determined in the presence of 10 uM PGE2. Bound and free radiolabel was separated by vacuum manifold filtration using appropriate wash buffers, and bound radiolabel was determined by scintillation counting. Constituents of each of the buffers are included in table 4 below.
The affinity or pKi of each compound for each receptor was calculated from the concentration causing 50% radioligand displacement (IC50) using the Cheng-Prusoff equation: [formula]
This approach follows that set out in Kenakin, T. P., Pharmacologic analysis of drug receptor interaction. Raven Press, New York, 2nd edition.

[4] = mean of four donors (FIG. 9, table 7), read-out: Mean EC50
[5] = log scale, mean of four donors (FIG. 9, table 7), read-out: Mean Log (EC50) (converted)

CCCCCC(O)c1ccc(C2CCC(=O)C2CCCCCCC(=O)O)cc1 (racemic) [AH13205, (±)-trans-2-[4-(1-hydroxyhexyl)phenyl]-5-oxo-cyclopentaneheptanoic acid, reference compound]
EC50 [1, 4]: 2820 nM | EC50 [1, 5]: 2820 nM | maximum inhibitory effect: inhibition of EFS-induced contractions [2]: 49±5% | effect on electrically-induced (EFS-evoked) contractions [2]: concentration-dependent inhibition | effect on electrically-induced (EFS-evoked) contractions ([2]; listed as AH-13205): inhibit electrically-induced contractions | EC50 [2]: 5010 nM | Ki [3]: 6310 nM

CCCCC[C@H](O)c1ccc([C@H]2CCC(=O)[C@@H]2CCCCCCC(=O)O)cc1 (single isomer, unassigned) [Peak 1, Mixture 1 acid]
EC50 [1, 4]: 986 nM | EC50 ([1]; mean of three to five donors (FIG. 10, table 8), read-out: Mean EC50): 1320 nM | EC50 [1, 5]: 986 nM | EC50 ([1]; log scale, mean of three to five donors (FIG. 10, table 8), read-out: Mean Log (EC50) (converted)): 1320 nM | maximum inhibitory effect: inhibition of EFS-induced contractions [2]: 56±5% | effect on electrically-induced (EFS-evoked) contractions [2]: concentration-dependent inhibition | EC50 [2]: 1260 nM | Ki [3]: 2000 nM

CCCCC[C@@H](O)c1ccc([C@H]2CCC(=O)[C@@H]2CCCCCCC(=O)O)cc1 (single isomer, unassigned) [Peak 1, Mixture 2 acid]
maximum inhibitory effect: inhibition of EFS-induced contractions [2]: 57±2% | effect on electrically-induced (EFS-evoked) contractions [2]: concentration-dependent inhibition | EC50 [2]: 5010 nM | Ki [3]: 15800 nM
